In ChEMBL document CHEMBL1201862, “PubChem BioAssay data set” (2004):
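Dose response: 5 concentrations. Exposure: 48 h. Format: 96-well plates. Endpoint: linear interpolation; highest concentration if not reached. GI50 marks 50% less growth.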 Activity calls are given as the source filed them. No stated cut-off is given here; in the data, active = GI50 up to about 1.1 µM and inactive = higher.

Key:
Assay in all cases: NCI tumour cell line growth inhibition, 48 h
786-0 = system: 786-0
A498 = system: A498
BT-549 = system: BT-549
HCT-116 = system: HCT-116
HOP-62 = system: HOP-62
HT-29 = system: HT-29
K562 = system: K562
MCF7 = system: MCF7
MDA-N = system: MDA-N
MOLT-4 = system: MOLT-4
NCI/ADR-RES = system: NCI/ADR-RES
OVCAR-3 = system: OVCAR-3
OVCAR-4 = system: OVCAR-4
OVCAR-5 = system: OVCAR-5
PC-3 = system: PC-3
SR = system: SR
SW-620 = system: SW-620
UO-31 = system: UO-31
U-251 = system: U-251

Measured: GI50

Cc1cc2c3c(c1)S(=O)(=O)c1cc(Cl)ccc1N3CCC2
inactive: 786-0 82.2 µM | A498 > 100 µM | BT-549 > 100 µM | HCT-116 > 100 µM | HOP-62 76.7 µM | HT-29 > 100 µM | K562 96.8 µM | MCF7 > 100 µM | MDA-N > 100 µM | MOLT-4 57.7 µM | NCI/ADR-RES > 100 µM | OVCAR-3 > 100 µM | OVCAR-4 64.3 µM | OVCAR-5 > 100 µM | PC-3 88.1 µM | SR > 100 µM | SW-620 > 100 µM | UO-31 > 100 µM

Cc1csc2c(=O)n(C3OC(CO)C(O)C3O)c(=O)[nH]c12 (configuration not stated)
inactive: 786-0 > 100 µM | A498 > 100 µM | BT-549 > 100 µM | HCT-116 > 100 µM | HOP-62 > 100 µM | HT-29 > 100 µM | K562 > 100 µM | MCF7 > 100 µM | MDA-N > 100 µM | MOLT-4 > 100 µM | NCI/ADR-RES > 100 µM | OVCAR-3 > 100 µM | OVCAR-4 > 100 µM | OVCAR-5 > 100 µM | PC-3 > 100 µM | SR > 100 µM | SW-620 > 100 µM | U-251 > 100 µM | UO-31 > 100 µM

C=C(C1=CC(=O)C(C)(C)O1)[C@@H]1CC=C([C@@H]2CC[C@H]3[C@@]2(C)CC[C@H]2C(C)(C)C(=O)[C@H](OC(=O)CC(C)(O)CC(=O)O)C[C@]32C)[C@H](O)O1 (some centres not stated)
inactive: 786-0 11.1 µM | A498 13 µM | BT-549 2.06 µM | HCT-116 12.9 µM | HOP-62 21.1 µM | HT-29 16.8 µM | K562 25.7 µM | MCF7 9.84 µM | MDA-N 13.9 µM | MOLT-4 4.14 µM | NCI/ADR-RES 19 µM | OVCAR-3 11.9 µM | OVCAR-5 14.5 µM | PC-3 13.2 µM | SR 12.6 µM | SW-620 10.7 µM | U-251 13.5 µM | UO-31 13.6 µM

O=C(NC(Cc1ccccc1)(Cc1ccc(O)cn1)C(=O)O)c1ccccc1 (configuration not stated)
inactive: 786-0 > 100 µM | BT-549 > 100 µM | HCT-116 58.9 µM | HOP-62 > 100 µM | HT-29 42.2 µM | K562 > 100 µM | MDA-N > 100 µM | MOLT-4 46.8 µM | NCI/ADR-RES > 100 µM | OVCAR-3 63 µM | OVCAR-4 98.6 µM | OVCAR-5 > 100 µM | PC-3 76.4 µM | SW-620 > 100 µM | U-251 > 100 µM | UO-31 86.5 µM

O=C1OC(CS(=O)(=O)c2ccccc2)CC1O (configuration not stated)
inactive: 786-0 > 100 µM | A498 > 100 µM | BT-549 72.8 µM | HCT-116 > 100 µM | HOP-62 > 100 µM | HT-29 > 100 µM | K562 > 100 µM | MCF7 > 100 µM | MDA-N > 100 µM | MOLT-4 > 100 µM | NCI/ADR-RES > 100 µM | OVCAR-3 > 100 µM | OVCAR-4 > 100 µM | OVCAR-5 > 100 µM | PC-3 > 100 µM | SR > 100 µM | SW-620 > 100 µM | U-251 > 100 µM | UO-31 55.6 µM

O=C(c1ccc2ccccc2c1)C1S(=O)(=O)OCCOS1(=O)=O
inactive: 786-0 > 100 µM | BT-549 > 100 µM | HCT-116 > 100 µM | HOP-62 > 100 µM | HT-29 > 100 µM | K562 > 100 µM | MCF7 > 100 µM | MDA-N > 100 µM | MOLT-4 > 100 µM | NCI/ADR-RES > 100 µM | OVCAR-3 > 100 µM | OVCAR-4 > 100 µM | OVCAR-5 > 100 µM | PC-3 > 100 µM | SR > 100 µM | U-251 > 100 µM | UO-31 > 100 µM
